Where two headings read alike, the source gives them in different places.
Assays:
[1] = system: Key Grass and Sedge Weeds as well as Grass Crops; assay: Post-Emergent Test II: postemergent herbicidal activity, visual rating after 14 d (Table 8); type: in vivo; conditions: post-emergence, 336 h; for pest or weed control at 35 g/ha: 35 g ai/ha; for pest or weed control at 70 g/ha: 70 g ai/ha; for pest or weed control at 140 g/ha: 140 g ai/ha
Summary of the method: (§1)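 Greenhouse-grown plants at the first or second true leaf stage (7-21 d, ~15 h photoperiod, 23-29° C day) were sprayed with compound in acetone/DMSO-based aqueous spray containing crop oil concentrate and Triton X-155 at 187 L/ha. Injury versus untreated plants was rated visually after 14 d on a 0-100 scale.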

[2] = system: Key Broadleaf Weed and Crop Species; assay: Post-Emergent Test II: postemergent herbicidal activity, visual rating after 14 d (Table 7); type: in vivo; conditions: post-emergence, 336 h; for pest or weed control at 35 g/ha: 35 g ai/ha; for pest or weed control at 70 g/ha: 70 g ai/ha; for pest or weed control at 140 g/ha: 140 g ai/ha
Summary of the method: as §1

[3] = barnyardgrass (Echinochloa crus-galli), read-out: Visual Growth Reduction (%) 14 Days After Application ECHCG
[4] = giant foxtail (Setaria faberi), read-out: Visual Growth Reduction (%) 14 Days After Application SETFA
[5] = maize, corn (Zea mays), read-out: Visual Growth Reduction (%) 14 Days After Application ZEAMX
[6] = rice (Oryza sativa), read-out: Visual Growth Reduction (%) 14 Days After Application ORYSA
[7] = wheat, spring (Triticum aestivum), read-out: Visual Growth Reduction (%) 14 Days After Application TRZAS
[8] = yellow nutsedge (Cyperus esculentus), read-out: Visual Growth Reduction (%) 14 Days After Application CYPES
[9] = lambsquarters (Chenopodium album), read-out: Visual Growth Reduction (%) 14 Days After Application CHEAL
[10] = oilseed rape, canola (Brassica napus), read-out: Visual Growth Reduction (%) 14 Days After Application BRSNN
[11] = redroot pigweed (Amaranthus retroflexus), read-out: Visual Growth Reduction (%) 14 Days After Application AMARE
[12] = sunflower (Helianthus annuus), read-out: Visual Growth Reduction (%) 14 Days After Application HELAN
[13] = velvetleaf (Abutilon theophrasti), read-out: Visual Growth Reduction (%) 14 Days After Application ABUTH
[14] = wild poinsettia (Euphorbia heterophylla), read-out: Visual Growth Reduction (%) 14 Days After Application EPHHL

Compound | pest or weed control at 35 g/ha [1, 3] [%] | pest or weed control at 70 g/ha [1, 3] [%] | pest or weed control at 140 g/ha [1, 3] [%] | pest or weed control at 35 g/ha [1, 4] [%] | pest or weed control at 70 g/ha [1, 4] [%] | pest or weed control at 140 g/ha [1, 4] [%] | pest or weed control at 35 g/ha [1, 5] [%] | pest or weed control at 70 g/ha [1, 5] [%] | pest or weed control at 140 g/ha [1, 5] [%] | pest or weed control at 35 g/ha [1, 6] [%] | pest or weed control at 70 g/ha [1, 6] [%] | pest or weed control at 140 g/ha [1, 6] [%] | pest or weed control at 35 g/ha [1, 7] [%] | pest or weed control at 70 g/ha [1, 7] [%] | pest or weed control at 140 g/ha [1, 7] [%] | pest or weed control at 35 g/ha [1, 8] [%] | pest or weed control at 70 g/ha [1, 8] [%] | pest or weed control at 140 g/ha [1, 8] [%] | pest or weed control at 35 g/ha [2, 9] [%] | pest or weed control at 70 g/ha [2, 9] [%] | other results
COC(=O)c1nc(-c2ccc3c(c2)OC(C)(C)O3)nc(N)c1OC [Compound 67] | 0 to 29 | 45 to 59 | 75 to 84 | 0 to 29 | 45 to 59 | 60 to 74 | 0 to 29 | 60 to 74 | 60 to 74 | 0 to 29 | 0 to 29 | 0 to 29 | 0 to 29 | 0 to 29 | 0 to 29 | 0 to 29 | 0 to 29 | 45 to 59 | 0 to 29 | 0 to 29 | pest or weed control at 140 g/ha [2, 9]: 0 to 29%; pest or weed control at 35 g/ha [2, 10]: 0 to 29%; pest or weed control at 70 g/ha [2, 10]: 0 to 29%; pest or weed control at 140 g/ha [2, 10]: 0 to 29%; pest or weed control at 35 g/ha [2, 11]: 0 to 29%; pest or weed control at 70 g/ha [2, 11]: 0 to 29%; pest or weed control at 140 g/ha [2, 11]: 0 to 29%; pest or weed control at 35 g/ha [2, 12]: 0 to 29%; pest or weed control at 70 g/ha [2, 12]: 0 to 29%; pest or weed control at 140 g/ha [2, 12]: 0 to 29%; pest or weed control at 35 g/ha [2, 13]: 0 to 29%; pest or weed control at 70 g/ha [2, 13]: 0 to 29%; pest or weed control at 140 g/ha [2, 13]: 0 to 29%; pest or weed control at 35 g/ha [2, 14]: 60 to 74%; pest or weed control at 70 g/ha [2, 14]: 95 to 100%; pest or weed control at 140 g/ha [2, 14]: 95 to 100%
COc1c(N)nc(-c2cc3c(cc2F)OC(F)(F)O3)nc1C(=O)O [Compound 68] | 60 to 74 | 60 to 74 | 75 to 84 | 60 to 74 | 60 to 74 | 60 to 74 | 45 to 59 | 60 to 74 | 75 to 84 | 0 to 29 | 0 to 29 | 0 to 29 | 0 to 29 | 45 to 59 | 45 to 59 | 0 to 29 | 0 to 29 | 0 to 29 | 0 to 29 | 0 to 29 | pest or weed control at 140 g/ha [2, 9]: 0 to 29%; pest or weed control at 35 g/ha [2, 10]: 0 to 29%; pest or weed control at 70 g/ha [2, 10]: 0 to 29%; pest or weed control at 140 g/ha [2, 10]: 0 to 29%; pest or weed control at 35 g/ha [2, 11]: 0 to 29%; pest or weed control at 70 g/ha [2, 11]: 0 to 29%; pest or weed control at 140 g/ha [2, 11]: 0 to 29%; pest or weed control at 35 g/ha [2, 12]: 30 to 44%; pest or weed control at 70 g/ha [2, 12]: 45 to 59%; pest or weed control at 140 g/ha [2, 12]: 60 to 74%; pest or weed control at 35 g/ha [2, 13]: 0 to 29%; pest or weed control at 70 g/ha [2, 13]: 0 to 29%; pest or weed control at 140 g/ha [2, 13]: 0 to 29%; pest or weed control at 35 g/ha [2, 14]: 75 to 84%; pest or weed control at 70 g/ha [2, 14]: 95 to 100%; pest or weed control at 140 g/ha [2, 14]: 95 to 100%
COC(=O)c1nc(-c2cc3c(cc2F)OCO3)nc(N)c1OC [Compound 69] | 0 to 29 | 0 to 29 | 0 to 29 | 0 to 29 | 0 to 29 | 0 to 29 | 0 to 29 | 0 to 29 | 0 to 29 | 0 to 29 | 0 to 29 | 0 to 29 | 0 to 29 | 0 to 29 | 0 to 29 | 0 to 29 | 0 to 29 | 0 to 29 | 0 to 29 | 0 to 29 | pest or weed control at 140 g/ha [2, 9]: 0 to 29%; pest or weed control at 35 g/ha [2, 10]: 75 to 84%; pest or weed control at 70 g/ha [2, 10]: 75 to 84%; pest or weed control at 140 g/ha [2, 10]: 95 to 100%; pest or weed control at 35 g/ha [2, 11]: 0 to 29%; pest or weed control at 70 g/ha [2, 11]: 0 to 29%; pest or weed control at 140 g/ha [2, 11]: 0 to 29%; pest or weed control at 35 g/ha [2, 12]: 0 to 29%; pest or weed control at 70 g/ha [2, 12]: 45 to 59%; pest or weed control at 140 g/ha [2, 12]: 60 to 74%; pest or weed control at 35 g/ha [2, 13]: 0 to 29%; pest or weed control at 70 g/ha [2, 13]: 0 to 29%; pest or weed control at 140 g/ha [2, 13]: 0 to 29%; pest or weed control at 35 g/ha [2, 14]: 0 to 29%; pest or weed control at 70 g/ha [2, 14]: 60 to 74%; pest or weed control at 140 g/ha [2, 14]: 75 to 84%

Source: patent US9149038B2, “4-amino-6-(heterocyclic)picolinates and 6-amino-2-(heterocyclic)pyrimidine-4-carboxylates and their use as herbicides” (Dow AgroSciences LLC, priority 2013, dated 2015)
